Data as given in patent publication US7326732B2, “EP2 receptor agonists” (Pharmagene Laboratories Limited, priority 2004, dated 2008).

What was measured:
human EP3 receptor = target: T1, human EP3 receptor (Homo sapiens, UniProt P43115); experiment: Binding ability to human EP receptors ([3H]PGE2 displacement), EP3; details: membranes expressing human EP3; [3H]PGE2 2.5 nM; Cheng-Prusoff; read-out: pKi (M) EP3 (converted)
T1 construct: expressed in transfected cells
T1 sequence (P43115 1-390): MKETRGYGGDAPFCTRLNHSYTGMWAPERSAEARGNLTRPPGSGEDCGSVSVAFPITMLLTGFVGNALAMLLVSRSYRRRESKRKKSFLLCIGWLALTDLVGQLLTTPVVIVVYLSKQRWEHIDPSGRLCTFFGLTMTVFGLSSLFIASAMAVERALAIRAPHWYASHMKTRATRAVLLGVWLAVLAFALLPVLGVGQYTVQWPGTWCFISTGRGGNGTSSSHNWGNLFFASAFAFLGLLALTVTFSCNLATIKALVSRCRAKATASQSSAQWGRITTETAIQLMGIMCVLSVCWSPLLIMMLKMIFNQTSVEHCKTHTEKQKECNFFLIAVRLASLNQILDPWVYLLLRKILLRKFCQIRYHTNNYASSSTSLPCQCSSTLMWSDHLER
Summary of the method: (§1)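 Membranes from cells stably expressing human EP2, EP3 or EP4 incubated to equilibrium with [3H]PGE2 and compound at 0.1 to 10 000 nM. Non-specific binding defined with 10 uM PGE2; bound label separated by vacuum filtration and quantified by scintillation counting.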

human EP2 receptor = target: T2, human EP2 receptor (Homo sapiens, UniProt P43116); experiment: Binding ability to human EP receptors ([3H]PGE2 displacement), EP2; details: membranes expressing human EP2; [3H]PGE2 3 nM; Cheng-Prusoff; read-out: pKi (M) EP2 (converted)
T2 construct: expressed in transfected cells
T2 sequence (P43116 whole entry): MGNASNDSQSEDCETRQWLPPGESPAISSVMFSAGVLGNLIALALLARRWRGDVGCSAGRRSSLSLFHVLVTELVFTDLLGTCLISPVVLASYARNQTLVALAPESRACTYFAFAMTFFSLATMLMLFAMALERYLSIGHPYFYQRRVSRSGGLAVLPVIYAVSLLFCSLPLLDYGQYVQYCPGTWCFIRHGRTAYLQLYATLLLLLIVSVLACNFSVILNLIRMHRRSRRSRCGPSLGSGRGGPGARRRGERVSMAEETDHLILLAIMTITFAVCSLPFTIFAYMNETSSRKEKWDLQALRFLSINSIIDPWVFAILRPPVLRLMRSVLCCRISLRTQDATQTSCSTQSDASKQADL
Summary of the method: as §1

[1] = target: T3, human EP4 prostanoid receptors (Homo sapiens, UniProt P35408); experiment: Antagonist activity at EP4 prostanoid receptors (PGE2-stimulated cAMP in HEK-293 clones); type: cell-based; details: for Kb: HEK-293 stably transfected with human EP4, 30 min pre-incubation before PGE2, Gaddum-Schild, slope of unity, read-out: pA2 EP4 (converted); for activity (EP4 part): functional classification at EP4, second line of the activity cell
T3 construct: expressed in transfected cells; host or cells: HEK-293
T3 sequence (P35408 whole entry): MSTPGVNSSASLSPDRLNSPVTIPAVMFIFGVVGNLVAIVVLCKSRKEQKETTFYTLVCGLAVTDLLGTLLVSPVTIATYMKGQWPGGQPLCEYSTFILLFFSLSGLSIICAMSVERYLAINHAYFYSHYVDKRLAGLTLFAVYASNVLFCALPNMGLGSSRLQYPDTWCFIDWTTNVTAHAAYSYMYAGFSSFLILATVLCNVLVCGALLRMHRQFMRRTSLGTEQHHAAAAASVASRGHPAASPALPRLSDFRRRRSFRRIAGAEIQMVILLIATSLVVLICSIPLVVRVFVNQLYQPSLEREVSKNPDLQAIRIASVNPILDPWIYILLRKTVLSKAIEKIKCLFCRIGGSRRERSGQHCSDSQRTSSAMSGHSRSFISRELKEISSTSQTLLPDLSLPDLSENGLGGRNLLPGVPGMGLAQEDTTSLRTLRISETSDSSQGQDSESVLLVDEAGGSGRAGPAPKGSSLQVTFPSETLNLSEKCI
Description: Culture media was Minimal essential media (MEM), supplemented with 10% foetal bovine serum, 100 U/ml penicillin, […] streptomycin, 2.5 μg/ml fungizone, 2mM glutamine. Cells were cultured to confluency (3-4 days) prior to use. Culture media was removed, and confluent cells washed three times in MEM. […] Cells were then stimulated by the addition of 25 μl of PGE2 or agonists prepared in assay buffer. In antagonist studies, cells were pre-incubated with compounds for 30 minutes prior to PGE2-mediated stimulation Plates were incubated for 15 min at 37° C., before termination of the reaction by the addition of 25 μl 1M HCl. The plate was then frozen at -20° C. overnight before determination of cAMP concentration. Stimulated cAMP levels were determined by radioligand displacement binding. In brief, plates were thawed rapidly in a waterbath, and the samples neutralised by the addition of 25 μl 1M NaOH. 30 μl was transferred to Millipore plates pre-coated with 0.5% Polyethylenimine (PEI). Samples were diluted by addition of 90 μl cAMP determination buffer (50 mM Tris, 5 mM EDTA, pH 7.0). […] 15 μl of 2 nM (final concentration) [^3H] cAMP, and 15 μl of 3'5'-cAMP protein kinase (8 μg/well final concentration) prepared in cAMP determination buffer containing 0.1% BSA, were added to each well. Plates were incubated on ice for 2 hours, before bound and free radiolabel were separated by vacuum filtration harvesting using the Millipore vacuum manifold, using ice cold water as the termination buffer. The sealing mat was removed from the Millipore plates, and the filters allowed to dry overnight. 50 μl Microscint 0 (Packard Bioscience) was added to each well, and the plate counted using the Micro-Beta Trilux topcount ^3H program. cAMP accumulation was determined from the standard curve, and values calculated in pmoles cAMP/well. Antagonists affinities (pA2 values) were determined assuming a slope of unity and the […]-Schild equation, where pA2=log [concentration ratio-1]-log[antagonist].

human EP4 receptor = target: T4, human EP4 receptor (Homo sapiens, UniProt P35408); experiment: Binding ability to human EP receptors ([3H]PGE2 displacement), EP4; details: membranes expressing human EP4; [3H]PGE2 1 nM; Cheng-Prusoff; read-out: pKi (M) EP4 (converted)
T4 construct: expressed in transfected cells
T4 sequence (P35408 whole entry): as above
Summary of the method: as §1

[2] = target: T5, human EP2 prostanoid receptors (Homo sapiens, UniProt P43116); experiment: Agonist activity at recombinant human EP2 prostanoid receptors (cAMP in HEK-293 clones); type: cell-based; details: for EC50: HEK-293 stably transfected with human EP2, cAMP accumulation, read-out: pEC50 EP2 (converted); for activity (EP2 part): functional classification at EP2
T5 construct: expressed in transfected cells; host or cells: HEK-293
T5 sequence (P43116 whole entry): as the sequence (P43116 whole entry) above

Row | SMILES | Ki (human EP3 receptor) [M] | Ki (human EP2 receptor) [M] | Kb [1] [nM] | activity (EP4 part) [1] | Ki (human EP4 receptor) [M] | EC50 [2] [nM] | activity (EP2 part) [2]
1 | O=C(O)CCc1cccc(NC(=O)c2ccc(-c3cccc(Cl)c3)o2)c1 [Compound 125, 3-(3-{[5-(3-Chloro-phenyl)-furan-2-carbonyl]-amino}-phenyl)-propionic acid] | > 1e-05 | < 1e-07 | < 10000 | EP4 Antagonist | < 1e-05 | < 100 | EP2 Agonist/
2 | O=C(O)CCc1cccc(NC(=O)c2ccc(-c3cc(Cl)cc(Cl)c3)o2)c1 [Compound 126, 3-(3-{[5-(3,5-Dichloro-phenyl)-furan-2-carbonyl]-amino}-phenyl)-propionic acid] | > 1e-05 | < 1e-07 | < 1000 | EP4 Antagonist | < 1e-06 | < 100 | EP2 Agonist/
3 | O=C(O)Cc1cccc(NC(=O)c2cccc(-c3cccc(Cl)c3)n2)c1 [Compound 129, (3-{[6-(3-Chloro-phenyl)-pyridine-2-carbonyl]-amino}-phenyl)-acetic acid] | > 1e-05 | < 1e-07 | < 1000 | EP4 Antagonist | < 1e-06 | < 100 | EP2 Agonist/
4 | O=C(O)Cc1cccc(NC(=O)c2cccc(-c3cc(Cl)cc(Cl)c3)n2)c1 [Compound 130, (3-{[6-(3,5-Dichloro-phenyl)-pyridine-2-carbonyl]-amino}-phenyl)-acetic acid] | > 1e-05 | < 1e-07 | < 1000 | EP4 Antagonist | < 1e-06 | < 100 | EP2 Agonist/
5 | O=C(O)COc1cccc(NC(=O)c2cccc(-c3cc(Cl)cc(Cl)c3)n2)c1 [Compound 133, (3-{[6-(3,5-Dichloro-phenyl)-pyridine-2-carbonyl]-amino}-phenoxy)-acetic acid] | > 1e-05 | < 1e-07 | < 100 | EP4 Agonist | < 1e-06 | < 100 | EP2 Agonist/
6 | O=C(O)COc1cccc(NC(=O)c2cccc(-c3cccc(Cl)c3)n2)c1 [Compound 138, (3-{[6-(3-Chloro-phenyl)-pyridine-2-carbonyl]-amino}-phenoxy)-acetic acid] | > 1e-05 | < 1e-07 | < 1000 | EP4 Agonist | < 1e-07 | < 100 | EP2 Agonist/
7 | O=C(O)/C=C/c1cccc(NC(=O)c2cc(-c3cc(Cl)cc(Cl)c3)ccc2F)c1 [Compound 144, 3-{3-[(3′,5′-Dichloro-4-fluoro-biphenyl-3-carbonyl)-amino]-phenyl}-acrylic acid] | > 1e-05 | < 1e-07 | < 1000 | – | < 1e-06 | < 100 | EP2 Agonist
8 | O=C(O)/C=C/c1cccc(NC(=O)c2cccc(-c3ccccc3)n2)c1 [Compound 178, 3-{3-[(6-Phenyl-pyridine-2-carbonyl)-amino]-phenyl}-acrylic acid] | > 1e-05 | < 1e-07 | < 1000 | EP4 Agonist | < 1e-07 | < 100 | EP2 Agonist/
